In the supplement of paper PMC10307832:

Columns and labels:
Test in all cases: relative viability (nuclei count vs DMSO), 5 days (fraction); higher = more cells survive
[1] = system: NCI-H1792
How it was run: (§1)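 Relative viability equals treated-well nuclei counts divided by vehicle-well nuclei counts. Counts came from 4× images of lung cancer cell lines grown in 1536-well plates for 5 days after pin-tool dosing on the day after seeding. Dosing used one drug alone or a fixed anchor-drug dose plus five library-drug doses (not always all listed) in √10 steps, and values are medians of duplicate plates.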

[2] = system: SK-MES-1
How it was run: as §1

[3] = system: NCI-H727
How it was run: as §1

[4] = system: EMC-BAC-2
How it was run: as §1

[5] = system: NCI-H2228
How it was run: as §1

[6] = system: PC-3 [JPC-3]
How it was run: as §1

[7] = system: NCI-H2009
How it was run: as §1

[8] = system: LK-2
How it was run: as §1

[9] = system: NCI-H1944
How it was run: as §1

[10] = system: NCI-H322M
How it was run: as §1

[11] = system: HARA
How it was run: as §1

[12] = system: NCI-H1993
How it was run: as §1

[13] = system: NCI-H596
How it was run: as §1

[14] = system: HOP-62
How it was run: as §1

[15] = system: NCI-H3122
How it was run: as §1

[16] = system: A-427
How it was run: as §1

[17] = system: ABC-1
How it was run: as §1

[18] = system: SW 1573
How it was run: as §1

[19] = system: LXF-289
How it was run: as §1

`O=c1cc(-c2cccc3c2Sc2ccccc2S3)oc(N2CCOCC2)c1` + C[C@]1(O)C[C@@H](c2nc(-c3ccc4ccc(-c5ccccc5)nc4c3)c3c(N)nccn32)C1 [Linsitinib] (partner 1 µM) gave a relative viability ([1]; first compound 0.253 µM) of 0.61, a relative viability ([1]; first compound 0.8 µM) of 0.502 and a relative viability ([1]; first compound 2.53 µM) of 0.535. It also gave a relative viability ([1]; first compound 8 µM) of 0.516, a relative viability ([2]; first compound 0.08 µM) of 1.12 and a relative viability ([2]; first compound 0.253 µM) of 1.16. It also gave a relative viability ([2]; first compound 0.8 µM) of 0.956, a relative viability ([2]; first compound 2.53 µM) of 1.08 and a relative viability ([2]; first compound 8 µM) of 1.05. For the same molecule, the relative viability ([3]; first compound 0.253 µM) was 0.284, the relative viability ([3]; first compound 2.53 µM) was 0.314 and the relative viability ([3]; first compound 8 µM) was 0.304. It also gave a relative viability ([4]; first compound 0.08 µM) of 0.828, a relative viability ([4]; first compound 0.253 µM) of 0.9 and a relative viability ([4]; first compound 0.8 µM) of 0.842. The relative viability ([4]; first compound 2.53 µM) was 0.817, the relative viability ([4]; first compound 8 µM) was 0.878 and the relative viability ([5]; first compound 0.08 µM) was 0.545. It also gave a relative viability ([5]; first compound 0.253 µM) of 0.588, a relative viability ([5]; first compound 0.8 µM) of 0.826 and a relative viability ([5]; first compound 2.53 µM) of 0.592. For the same molecule, the relative viability ([5]; first compound 8 µM) was 0.63, the relative viability ([6]; first compound 0.08 µM) was 1.02 and the relative viability ([6]; first compound 0.253 µM) was 1.03. For the same molecule, the relative viability ([6]; first compound 0.8 µM) was 0.992, the relative viability ([6]; first compound 2.53 µM) was 0.972 and the relative viability ([6]; first compound 8 µM) was 0.91. For the same molecule, the relative viability ([7]; first compound 0.08 µM) was 1.17, the relative viability ([7]; first compound 0.253 µM) was 1.22 and the relative viability ([7]; first compound 0.8 µM) was 1.19. It also gave a relative viability ([7]; first compound 2.53 µM) of 1.12, a relative viability ([7]; first compound 8 µM) of 1.11 and a relative viability ([8]; first compound 0.08 µM) of 0.64. The relative viability ([8]; first compound 0.253 µM) was 0.527, the relative viability ([8]; first compound 0.8 µM) was 0.549 and the relative viability ([8]; first compound 2.53 µM) was 0.533. It also gave a relative viability ([8]; first compound 8 µM) of 0.651, a relative viability ([9]; first compound 0.08 µM) of 1.04 and a relative viability ([9]; first compound 0.253 µM) of 1.26. For the same molecule, the relative viability ([9]; first compound 0.8 µM) was 1.23, the relative viability ([9]; first compound 8 µM) was 1.18 and the relative viability ([10]; first compound 0.08 µM) was 0.868. The relative viability ([10]; first compound 0.253 µM) was 1.04, the relative viability ([10]; first compound 0.8 µM) was 0.866 and the relative viability ([10]; first compound 2.53 µM) was 0.928. It also gave a relative viability ([10]; first compound 8 µM) of 0.839, a relative viability ([11]; first compound 0.08 µM) of 1.01 and a relative viability ([11]; first compound 0.253 µM) of 1.2. The relative viability ([11]; first compound 0.8 µM) was 1.08, the relative viability ([11]; first compound 2.53 µM) was 0.948 and the relative viability ([11]; first compound 8 µM) was 0.743. For the same molecule, the relative viability ([12]; first compound 0.08 µM) was 0.739, the relative viability ([12]; first compound 0.253 µM) was 0.683 and the relative viability ([12]; first compound 0.8 µM) was 0.687. For the same molecule, the relative viability ([12]; first compound 2.53 µM) was 0.799, the relative viability ([12]; first compound 8 µM) was 0.859 and the relative viability ([13]; first compound 0.08 µM) was 1.02. The relative viability ([13]; first compound 0.253 µM) was 1.2, the relative viability ([13]; first compound 0.8 µM) was 1.14 and the relative viability ([13]; first compound 2.53 µM) was 1.08. It also gave a relative viability ([13]; first compound 8 µM) of 1.15, a relative viability ([14]; first compound 0.08 µM) of 1.04 and a relative viability ([14]; first compound 0.253 µM) of 1.01. The relative viability ([14]; first compound 0.8 µM) was 1.01, the relative viability ([14]; first compound 2.53 µM) was 0.789 and the relative viability ([14]; first compound 8 µM) was 0.917. For the same molecule, the relative viability ([15]; first compound 0.08 µM) was 1.07, the relative viability ([15]; first compound 0.253 µM) was 1.16 and the relative viability ([15]; first compound 0.8 µM) was 1.06. The relative viability ([15]; first compound 2.53 µM) was 0.99, the relative viability ([15]; first compound 8 µM) was 1.07 and the relative viability ([16]; first compound 0.08 µM) was 1.09. For the same molecule, the relative viability ([16]; first compound 0.253 µM) was 0.959, the relative viability ([16]; first compound 0.8 µM) was 1.19 and the relative viability ([16]; first compound 2.53 µM) was 1.07. The relative viability ([16]; first compound 8 µM) was 1.08, the relative viability ([17]; first compound 0.08 µM) was 0.627 and the relative viability ([17]; first compound 0.253 µM) was 1.02. The relative viability ([17]; first compound 0.8 µM) was 0.717, the relative viability ([17]; first compound 2.53 µM) was 0.711 and the relative viability ([17]; first compound 8 µM) was 0.954. It also gave a relative viability ([18]; first compound 0.08 µM) of 0.855, a relative viability ([18]; first compound 0.253 µM) of 0.819 and a relative viability ([18]; first compound 0.8 µM) of 0.685. For the same molecule, the relative viability ([18]; first compound 2.53 µM) was 0.809, the relative viability ([18]; first compound 8 µM) was 0.811 and the relative viability ([19]; first compound 0.08 µM) was 0.993. For the same molecule, the relative viability ([19]; first compound 0.253 µM) was 0.976, the relative viability ([19]; first compound 0.8 µM) was 0.99 and the relative viability ([19]; first compound 2.53 µM) was 0.96. The relative viability ([19]; first compound 8 µM) was 1.07.
